ChEMBL document CHEMBL4000165, “Chemosensitizing effect of Paris Saponin I on Camptothecin and 10-hydroxycamptothecin in lung cancer cells via p38 MAPK, ERK, and Akt signaling pathways” (Eur J Med Chem, 2017)
Active and inactive are the calls of the source. The calls are words filed in the database; no cut-off is given here.

Tested on: NCI-H446
Assay: Induction of apoptosis in human NCI-H446 cells assessed as increase in cytochrome-C expression at 0.6 uM in presence of CPT by Western blot method
Format: functional, cell-based

Question: Which Activity does the source give for C[C@@H]1CC[C@@]2(OC1)O[C@H]1C[C@H]3[C@@H]4CC=C5C[C@@H](O[C@@H]6O[C@H](CO)[C@@H](O[C@@H]7O[C@@H](CO)[C@H](O)[C@H]7O)[C@H](O)[C@H]6O[C@@H]6O[C@@H](C)[C@H](O)[C@@H](O)[C@H]6O)CC[C@]5(C)[C@H]4CC[C@]3(C)[C@H]1[C@@H]2C here?
Answer: Active
